Source: patent US20250099474A1 (priority 2022, published 2025)
Like-named read-outs stand apart in the source and are kept apart here.

Legend:
SARS-CoV-2 [1] = experiment: Cytopathic effect (CPE) suppression effect confirmation test using VeroE6/TMPRSS2 cells; type: cell-based
SARS-CoV-2 [2] = type: in vivo, human; details: Phase 3 Part; for Time to resolution of five COVID-19 symptoms: Maximum value: +: includes censored data
Protocol: The primary endpoint of Phase 3 Part was the time to resolution of five COVID-19 symptoms in mild/moderate SARS-CoV-2-infected patients, and the efficacy was verified by evaluation of the five COVID-19 symptoms in four grades (0: none, 1: mild, 2: moderate, 3: severe) by the patients themselves.
The 750/250 mg group received 750 mg on Day 1 as a loading dose and 250 mg on Days 2 to 5 as a maintenance dose.
The primary efficacy endpoint of Phase 3 Part for mild/moderate SARS-CoV-2-infected patients was the time to resolution of the five COVID-19 symptoms.
Existing symptoms that existed before the onset of COVID-19 and were determined by the subject to be worsening at the baseline (pre-administration test) time point had to be improved […] from the severity at the baseline time point. • Severity at baseline was “severe”→“moderate”, “mild”, or “none” • Severity at baseline was “moderate”→“mild”, or “none” • Severity at baseline was “mild”→[…] “none” • Existing symptoms that existed before the onset of COVID-19 and were determined by the subject not to be worsening at the baseline (pre-administration test) time point had to be maintained or improved from the severity at the baseline time point. • Severity at baseline was “severe”->“severe”, “moderate”, “mild”, or “none” • Severity at baseline was “moderate”->“moderate”, “mild”, or “none” • Severity at baseline was “mild”→“mild”, or “none” • Regarding symptoms other than the above, that is, symptoms that were not present before the onset of COVID-19 and developed at or after the baseline (pre-administration test) time point, such symptoms had to be eliminated. • Severity at baseline was “severe”, “moderate”, or “mild”→“none”
As the key secondary analysis of the primary endpoint, the same analysis as the primary analysis was performed for the population of the mild/moderate SARS-CoV-2-infected patients in the ITT population.

[3] = ITT, onset to randomization less than 72 hours, 375/125 mg group
[4] = mild/moderate patients, ITT population, 375/125 mg group
[5] = mild/moderate patients, ITT population, 750/250 mg group
[6] = mild/moderate patients, ITT, onset to randomization less than 72 hours, 375/125 mg group

Cn1cnc(Cn2c(=O)[nH]/c(=N\c3cc4cn(C)nc4cc3Cl)n(Cc3cc(F)c(F)cc3F)c2=O)n1 [(6E)-6-[(6-chloro-2-methyl-2H-indazol-5-yl)imino]-3-[(1-methyl-1H-1,2,4-triazol-3-yl)methyl]-1-[(2,4,5-trifluorophenyl)methyl]-1,3,5-triazinane-2,4-dione]
EC50 (SARS-CoV-2 [1]; Severe acute respiratory syndrome coronavirus 2, VeroE6/TMPRSS2, Alpha strain (QHN001)): 0.31 µM | EC50 (SARS-CoV-2 [1]; Severe acute respiratory syndrome coronavirus 2, VeroE6/TMPRSS2, Alpha strain (QHN002)): 0.46 µM | EC50 (SARS-CoV-2 [1]; Severe acute respiratory syndrome coronavirus 2, VeroE6/TMPRSS2, Alpha strain (QK002)): 0.33 µM | EC50 (SARS-CoV-2 [1]; Severe acute respiratory syndrome coronavirus 2, VeroE6/TMPRSS2, Beta strain (TY8-612)): 0.4 µM | EC50 (SARS-CoV-2 [1]; Severe acute respiratory syndrome coronavirus 2, VeroE6/TMPRSS2, Delta strain (TY11-927-P1)): 0.41 µM | EC50 (SARS-CoV-2 [1]; Severe acute respiratory syndrome coronavirus 2, VeroE6/TMPRSS2, Gamma strain (TY7-501)): 0.5 µM | EC50 (SARS-CoV-2 [1]; Severe acute respiratory syndrome coronavirus 2, VeroE6/TMPRSS2, Gamma strain (TY7-503)): 0.43 µM | EC50 (SARS-CoV-2 [1]; Severe acute respiratory syndrome coronavirus 2, VeroE6/TMPRSS2, Lambda strain (TY33-456)): 0.27 µM | EC50 (SARS-CoV-2 [1]; Severe acute respiratory syndrome coronavirus 2, VeroE6/TMPRSS2, Mu strain (TY26-717)): 0.43 µM | EC50 (SARS-CoV-2 [1]; Severe acute respiratory syndrome coronavirus 2, VeroE6/TMPRSS2, Omicron BA.1 strain (TY38-873)): 0.29 µM | EC50 (SARS-CoV-2 [1]; Severe acute respiratory syndrome coronavirus 2, VeroE6/TMPRSS2, Omicron BA.1.1 strain (TY38-871)): 0.36 µM | EC50 (SARS-CoV-2 [1]; Severe acute respiratory syndrome coronavirus 2, VeroE6/TMPRSS2, Omicron BA.2 strain (TY40-385)): 0.52 µM | EC50 (SARS-CoV-2 [1]; Severe acute respiratory syndrome coronavirus 2, VeroE6/TMPRSS2, Omicron BA.2.12.1 strain (TY41-721)): 0.24 µM | EC50 (SARS-CoV-2 [1]; Severe acute respiratory syndrome coronavirus 2, VeroE6/TMPRSS2, Omicron BA.2.75 strain (TY41-716)): 0.3 µM | EC50 (SARS-CoV-2 [1]; Severe acute respiratory syndrome coronavirus 2, VeroE6/TMPRSS2, Omicron BA.4 strain (TY41-703)): 0.22 µM | EC50 (SARS-CoV-2 [1]; Severe acute respiratory syndrome coronavirus 2, VeroE6/TMPRSS2, Omicron BA.5 strain (TY41-702)): 0.4 µM | EC50 (SARS-CoV-2 [1]; Severe acute respiratory syndrome coronavirus 2, VeroE6/TMPRSS2, Omicron BQ.1.1 strain (TY41-796)): 0.48 µM | EC50 (SARS-CoV-2 [1]; Severe acute respiratory syndrome coronavirus 2, VeroE6/TMPRSS2, Omicron XBB.1 strain (TY41-795)): 0.33 µM | EC50 (SARS-CoV-2 [1]; Severe acute respiratory syndrome coronavirus 2, VeroE6/TMPRSS2, Omicron XE strain (TY41-686)): 0.44 µM | EC50 (SARS-CoV-2 [1]; Severe acute respiratory syndrome coronavirus 2, VeroE6/TMPRSS2, Theta strain (TY28-444)): 0.29 µM | Time to resolution of the five symptoms of COVID-19 shortened as the median value compared with placebo group by (SARS-CoV-2 [2]; ITT population, 375/125 mg group): 10.6 h | Time to resolution of 12 COVID-19 symptoms reduced compared to placebo group by a median of (SARS-CoV-2 [2]; [3]): 34.0 h | Time to resolution of 14 COVID-19 symptoms reduced compared to placebo group by a median of (SARS-CoV-2 [2]; [3]): 44.1 h | Time to resolution of the five COVID-19 symptoms shortened as the median compared with placebo group by (SARS-CoV-2 [2]; [3]): 24.3 h | Time to resolution of the five symptoms of COVID-19, significance vs placebo (SARS-CoV-2 [2]; mild/moderate patients, ITT population): no significant difference was observed | Time to resolution of five COVID-19 symptoms: 25% point (SARS-CoV-2 [2]; [4]): 104.3, — hour | Time to resolution of five COVID-19 symptoms: Difference of RMST (vs placebo) (SARS-CoV-2 [2]; [4]): -5.6 h | Time to resolution of five COVID-19 symptoms: Difference of median value (vs placebo) (SARS-CoV-2 [2]; [4]): -10.6 h | Time to resolution of five COVID-19 symptoms: Kaplan-Meier median value (SARS-CoV-2 [2]; [4]): 189.7 h | Time to resolution of five COVID-19 symptoms: Minimum value (SARS-CoV-2 [2]; [4]): 2.4 h | Time to resolution of five COVID-19 symptoms: Number of events (value in parentheses) (SARS-CoV-2 [2]; [4]): (73.0) | Time to resolution of five COVID-19 symptoms: Restricted mean survival time during 21 days (RMST) (SARS-CoV-2 [2]; [4]): 254.4 h | Time to resolution of five COVID-19 symptoms: Number of events (SARS-CoV-2 [2]; mild/moderate patients, ITT population, 375/125 mg group, 582 cases analyzed): 425 | Time to resolution of five COVID-19 symptoms: Maximum value (SARS-CoV-2 [2]; [4]): 493.3 h | Time to resolution of five COVID-19 symptoms: 25% point (SARS-CoV-2 [2]; [5]): 99.2 h | Time to resolution of five COVID-19 symptoms: 75% point (SARS-CoV-2 [2]; [5]): 434.8 h | Time to resolution of five COVID-19 symptoms: Difference of RMST (vs placebo) (SARS-CoV-2 [2]; [5]): -14.9 h | Time to resolution of five COVID-19 symptoms: Difference of median value (vs placebo) (SARS-CoV-2 [2]; [5]): -23.0 h | Time to resolution of five COVID-19 symptoms: Kaplan-Meier median value (SARS-CoV-2 [2]; [5]): 177.3 h | Time to resolution of five COVID-19 symptoms: Minimum value (SARS-CoV-2 [2]; [5]): 9.4 h | Time to resolution of five COVID-19 symptoms: Number of events (value in parentheses) (SARS-CoV-2 [2]; [5]): (75.3) | Time to resolution of five COVID-19 symptoms: Restricted mean survival time during 21 days (RMST) (SARS-CoV-2 [2]; [5]): 245.1 h | Time to resolution of five COVID-19 symptoms: Number of events (SARS-CoV-2 [2]; mild/moderate patients, ITT population, 750/250 mg group, 575 cases analyzed): 433 | Time to resolution of five COVID-19 symptoms: Maximum value (SARS-CoV-2 [2]; [5]): 493.1 h | Time to resolution of 12 COVID-19 symptoms: 25% point (SARS-CoV-2 [2]; [6]): 105.6, — hour | Time to resolution of 12 COVID-19 symptoms: Difference of RMST (vs placebo) (SARS-CoV-2 [2]; [6]): -16.9 h | Time to resolution of 12 COVID-19 symptoms: Difference of median value (vs placebo) (SARS-CoV-2 [2]; [6]): -34.0 h | Time to resolution of 12 COVID-19 symptoms: Kaplan-Meier median value (SARS-CoV-2 [2]; [6]): 179.2 h | Time to resolution of 12 COVID-19 symptoms: Minimum value (SARS-CoV-2 [2]; [6]): 2.4 h | Time to resolution of 12 COVID-19 symptoms: Number of events (value in parentheses) (SARS-CoV-2 [2]; [6]): (72.6) | Time to resolution of 12 COVID-19 symptoms: Restricted mean survival time during 21 days (RMST) (SARS-CoV-2 [2]; [6]): 253.9 h
